Measurements from patent publication US8741961B2 (Cutech S.r.l., priority 2007, dated 2014).

Assays:
Assay type in all cases: cell-based
[1] = test system: Human anagen hair follicles; assay: Number of proliferative (Ki-67) and apoptotic (Apoptag) cells in the dermopapilla of hair follicles; conditions: for Number of cells in apoptotic state ± standard error / Number of cells in proliferative state ± standard error: after three days of cultivation, % of total cells in dermopapilla
Experimental: After three days of cultivation, samples were taken in order to determine the relative number of cells being in the proliferative or apoptotic state. The cells in apoptotic state were determined using an Apoptag Fluorescein In-situ Apoptosis Detection Kit (Chemicon International cod. S7110), while those in the proliferative state were marked with the antibody Ki-67 (monoclonal mouse anti-human Ki-67, clone MIB1, Dako Cytomation cod. M7240). The total number of cells in the dermopapilla was analysed by marking their nuclei by means of DAPI (4′,6-diamidino-2-phenylindol dihydrochloride). The percentage of cells in the proliferative or apoptotic state compared to the total number of cells was determined again by image analysis.

[2] = test system: Human anagen hair follicles; assay: Growth (elongation) of isolated human hair follicles in organ culture; conditions: for Effect on hair growth compared to other MAOI (in words): comparative experiment, Table 4
Experimental: Human anagen hair follicles were isolated from scalp skin and transferred for cultivation in sterile 24-well plates using a modified Williams' Medium E. Cultivation took place for nine days, while the experimental treatment of the follicles started 24 hours after the beginning of cultivation.
Hair follicles taken from a single donor were selected for the experiments after 18 h of cultivation Only follicles showing a good vital stage and a growth of not less than 0.2 mm were considered suitable to be maintained in culture. 4 groups comprising 9 follicles were prepared, plated at the density of three hair follicles/plate. […] The growth of the hair follicles was studied by microphotography and subsequently determined by image analysis. All hair follicles were photographed every two days.

[3] = test system: Human anagen hair follicles; assay: as above; conditions: Table 1
[4] = test system: Human anagen hair follicles; assay: Histological analysis of hair follicles (anagen/catagen phase) after 9 days of cultivation; conditions: for Hair follicles in anagen phase / Hair follicles in catagen phase: after 9 days of cultivation
Source text: Subsequently, the hair follicles were subjected to a histological analysis by colouring with haematossilin and eosin in order to verify the morphological state of the dermopapilla.

[5] = 0.1 mM, day 1 of cultivation, Table 4 comparative experiment
[6] = 0.1 mM, day 3 of cultivation, Table 4 comparative experiment
[7] = 0.1 mM, day 5 of cultivation, Table 4 comparative experiment
[8] = 0.1 mM, day 9 of cultivation, Table 4 comparative experiment
[9] = 0.01 mM, day 1 of cultivation, Table 4 comparative experiment
[10] = 0.01 mM, day 3 of cultivation, Table 4 comparative experiment
[11] = 0.01 mM, day 5 of cultivation, Table 4 comparative experiment
[12] = 0.01 mM, day 7 of cultivation, Table 4 comparative experiment
[13] = 0.01 mM, day 9 of cultivation, Table 4 comparative experiment
[14] = 0.1 mM, day 7 of cultivation, Table 4 comparative experiment

**Q.** With Pargyline as the molecule, how does the “Number of cells in apoptotic state ± standard error” value ([1]; 0.01 mM) read?
**A.** The value was 0.93% ± 0.37.

**Q.** And the “Number of cells in proliferative state ± standard error” value ([1]; 0.01 mM)?
**A.** Its value is 1.67% ± 0.4.

**Q.** What about the “Number of cells in apoptotic state ± standard error” value ([1]; 0.1 mM) of the same molecule?
**A.** The value was 0.95% ± 0.08.

**Q.** And the “Number of cells in proliferative state ± standard error” value ([1]; 0.1 mM)?
**A.** The value was 2.89% ± 0.99.

**Q.** And the “Effect on number of apoptotic cells (in words)” value ([1]; versus control)?
**A.** Its value is “only a marginal effect in increasing the number of apoptotic cells”.

**Q.** What about the “Effect on number of cells in proliferative state (in words)” value ([1]; versus control) of the same molecule?
**A.** Its value is “significantly increases the number of cells in an active, proliferative state”.

**Q.** And the “Growth of hair follicles - elongation ± standard error” value ([2]; 0.01 mM, day 3 of cultivation, Table 1)?
**A.** Its value is 0.51 ± 0.03 mm.

**Q.** What about the “Growth of hair follicles - elongation ± standard error” value ([2]; 0.01 mM, day 5 of cultivation, Table 1) of the same molecule?
**A.** The value was 0.80 ± 0.07 mm.

**Q.** What about the “Growth of hair follicles - elongation ± standard error” value ([2]; 0.01 mM, day 9 of cultivation, Table 1) of the same molecule?
**A.** Its value is 1.47 ± 0.15 mm.

**Q.** And the “Growth of hair follicles - elongation ± standard error” value ([2]; 0.1 mM, day 1 of cultivation, Table 1)?
**A.** The value was 0 mm.

**Q.** And the “Growth of hair follicles - elongation ± standard error” value [2, 5]?
**A.** The value was 0 mm.

**Q.** What about the “Growth of hair follicles - elongation ± standard error” value ([2]; 0.1 mM, day 3 of cultivation, Table 1) of the same molecule?
**A.** The value was 0.55 ± 0.04 mm.

**Q.** And the “Growth of hair follicles - elongation ± standard error” value [2, 6]?
**A.** The value was 0.56 ± 0.02 mm.

**Q.** What about the “Growth of hair follicles - elongation ± standard error” value ([2]; 0.1 mM, day 5 of cultivation, Table 1) of the same molecule?
**A.** Its value is 0.91 ± 0.12 mm.

**Q.** And the “Growth of hair follicles - elongation ± standard error” value [2, 7]?
**A.** Its value is 0.78 ± 0.04 mm.

**Q.** What about the “Growth of hair follicles - elongation ± standard error” value ([2]; 0.1 mM, day 7 of cultivation, Table 1) of the same molecule?
**A.** The value was 1.19 ± 0.17 mm.

**Q.** And the “Growth of hair follicles - elongation ± standard error” value [2, 8]?
**A.** The value was 1.22 ± 0.08 mm.

**Q.** What about the “Growth of hair follicles - elongation ± standard error” value ([2]; 0.5 mM, day 3 of cultivation, Table 1) of the same molecule?
**A.** Its value is 0.55 ± 0.05 mm.

**Q.** And the “Growth of hair follicles - elongation ± standard error” value ([2]; 0.5 mM, day 5 of cultivation, Table 1)?
**A.** Its value is 0.81 ± 0.11 mm.

**Q.** And the “Growth of hair follicles - elongation ± standard error” value ([2]; 0.5 mM, day 9 of cultivation, Table 1)?
**A.** The value was 1.17 ± 0.19 mm.

**Q.** What about the “Effect on growth of the hair follicles (in words)” value ([2]; 0.01 to 0.5 mM versus control, Table 1) of the same molecule?
**A.** Its value is “significant increase in growth of the hair follicles”.

**Q.** And the “Effect on hair growth compared to other MAOI (in words)” value [2]?
**A.** Its value is “the only active species”.

**Q.** And the “Growth of hair follicles - elongation ± standard error” value ([3]; 0.01 mM, day 1 of cultivation)?
**A.** Its value is 0 mm.

**Q.** And the “Growth of hair follicles - elongation ± standard error” value ([3]; 0.1 mM, day 9 of cultivation)?
**A.** Its value is 1.60 ± 0.19 mm.

**Q.** What about the “Growth of hair follicles - elongation ± standard error” value ([3]; 0.5 mM, day 1 of cultivation) of the same molecule?
**A.** The value was 0 mm.

**Q.** What about the “Hair follicles in anagen phase” value ([4]; 0.01 mM) of the same molecule?
**A.** The value was 78%.

**Q.** And the “Hair follicles in catagen phase” value ([4]; 0.01 mM)?
**A.** Its value is 22%.

**Q.** And the “Hair follicles in anagen phase” value ([4]; 0.1 mM)?
**A.** The value was 67%.

**Q.** And the “Hair follicles in catagen phase” value ([4]; 0.1 mM)?
**A.** The value was 33%.

**Q.** And the “Hair follicles in anagen phase” value ([4]; 0.5 mM)?
**A.** The value was 56%.

**Q.** And the “Hair follicles in catagen phase” value ([4]; 0.5 mM)?
**A.** Its value is 44%.

**Q.** And the “Effect on decline in the catagen phase (in words)” value ([4]; 0.01 to 0.5 mM versus control)?
**A.** The value was “significantly delayed the decline in the catagen phase”.

**Q.** How did the “Growth of hair follicles - elongation ± standard error” value [2, 9] turn out when `C#CCN(C)CCCOc1ccc(Cl)cc1Cl` [Chlorgyline] was run?
**A.** Its value is 0 mm.

**Q.** And the “Growth of hair follicles - elongation ± standard error” value [2, 10]?
**A.** The value was 0.35 ± 0.02 mm.

**Q.** And the “Growth of hair follicles - elongation ± standard error” value [2, 11]?
**A.** The value was 0.49 ± 0.02 mm.

**Q.** What about the “Growth of hair follicles - elongation ± standard error” value [2, 12] of the same molecule?
**A.** The value was 0.61 ± 0.04 mm.

**Q.** What about the “Growth of hair follicles - elongation ± standard error” value [2, 13] of the same molecule?
**A.** Its value is 0.72 ± 0.07 mm.

**Q.** And the “Growth of hair follicles - elongation ± standard error” value [2, 5]?
**A.** The value was 0 mm.

**Q.** What about the “Growth of hair follicles - elongation ± standard error” value [2, 6] of the same molecule?
**A.** Its value is 0.33 ± 0.02 mm.

**Q.** And the “Growth of hair follicles - elongation ± standard error” value [2, 7]?
**A.** The value was 0.55 ± 0.04 mm.

**Q.** What about the “Growth of hair follicles - elongation ± standard error” value [2, 14] of the same molecule?
**A.** The value was 0.67 ± 0.05 mm.

**Q.** And the “Growth of hair follicles - elongation ± standard error” value [2, 8]?
**A.** The value was 0.79 ± 0.09 mm.

**Q.** What about the “Effect on hair growth compared to other MAOI (in words)” value [2] of the same molecule?
**A.** Its value is “did not exert any effect on hair growth”.

**Q.** `C#CCN(C)[C@@H](C)Cc1ccccc1` [S-Selegiline] was tested. Which “Growth of hair follicles - elongation ± standard error” value [2, 9] did it give?
**A.** Its value is 0 mm.

**Q.** What about the “Growth of hair follicles - elongation ± standard error” value [2, 10] of the same molecule?
**A.** Its value is 0.33 ± 0.02 mm.

**Q.** What about the “Growth of hair follicles - elongation ± standard error” value [2, 11] of the same molecule?
**A.** The value was 0.49 ± 0.02 mm.

**Q.** What about the “Growth of hair follicles - elongation ± standard error” value [2, 12] of the same molecule?
**A.** Its value is 0.69 ± 0.03 mm.

**Q.** What about the “Growth of hair follicles - elongation ± standard error” value [2, 13] of the same molecule?
**A.** Its value is 0.84 ± 0.06 mm.

**Q.** What about the “Growth of hair follicles - elongation ± standard error” value [2, 5] of the same molecule?
**A.** Its value is 0 mm.

**Q.** What about the “Growth of hair follicles - elongation ± standard error” value [2, 6] of the same molecule?
**A.** The value was 0.35 ± 0.01 mm.

**Q.** And the “Growth of hair follicles - elongation ± standard error” value [2, 7]?
**A.** The value was 0.55 ± 0.02 mm.

**Q.** What about the “Growth of hair follicles - elongation ± standard error” value [2, 14] of the same molecule?
**A.** The value was 0.70 ± 0.03 mm.

**Q.** And the “Growth of hair follicles - elongation ± standard error” value [2, 8]?
**A.** Its value is 0.75 ± 0.06 mm.

**Q.** `C#CCN(C)[C@H](C)Cc1ccccc1` [R-Selegiline] was tested. Which “Growth of hair follicles - elongation ± standard error” value [2, 9] did it give?
**A.** Its value is 0 mm.

**Q.** What about the “Growth of hair follicles - elongation ± standard error” value [2, 10] of the same molecule?
**A.** Its value is 0.35 ± 0.02 mm.

**Q.** And the “Growth of hair follicles - elongation ± standard error” value [2, 11]?
**A.** Its value is 0.52 ± 0.03 mm.

**Q.** What about the “Growth of hair follicles - elongation ± standard error” value [2, 12] of the same molecule?
**A.** The value was 0.62 ± 0.05 mm.

**Q.** And the “Growth of hair follicles - elongation ± standard error” value [2, 13]?
**A.** The value was 0.80 ± 0.06 mm.

**Q.** What about the “Growth of hair follicles - elongation ± standard error” value [2, 5] of the same molecule?
**A.** The value was 0 mm.

**Q.** And the “Growth of hair follicles - elongation ± standard error” value [2, 6]?
**A.** The value was 0.34 ± 0.02 mm.

**Q.** And the “Growth of hair follicles - elongation ± standard error” value [2, 7]?
**A.** The value was 0.53 ± 0.04 mm.

**Q.** What about the “Growth of hair follicles - elongation ± standard error” value [2, 14] of the same molecule?
**A.** Its value is 0.65 ± 0.06 mm.

**Q.** And the “Growth of hair follicles - elongation ± standard error” value [2, 8]?
**A.** Its value is 0.82 ± 0.12 mm.
